Patent US7456154B2 (priority 2001, dated 2008)

Key:
[1] = system: AChE; assay: Plasma cholinesterase activities in monkeys (Ellman assay, acetylthiocholine hydrolysis); type: in vivo, Cynomolgus monkey
Procedure: In the 12 hr following the second day administration of hEN101, monkey plasma samples were collected and stored. Plasma cholinesterase activities were measured by spectrophotometry assessing the rate of hydrolysis of acetylthiocholine (measured by the Ellman assay, which quantifies the hydrolysis of acetylthiocholine) [Ellman, G. L., et al. (1961). Biochem. Pharmacol. 7, 88-95], in the absence or presence of iso-OMPA (a selective butyrylcholinesterase, BChE, inhibitor). […] When measured in the presence of 1×10^−5M iso-OMPA, AChE activity increased within the 5 hr post-injection.

[2] = system: MG patients; assay: Phase Ib clinical trial of oral hEN101 in MG patients (QMG score); type: in vivo, human; settings: for Decrease in mean total QMG score from baseline: baseline mean total score 13.2
Procedure: Protocol for Phase Ib Clinical Trial of MG patients using hEN101: Patients were hospitalized and pyridostigmine was discontinued for 12-18 hours before EN101 testing. Assessment of MG status was performed first at entry, then after pyridostigmine stoppage, and regularly after EN101 treatment using a Quantitative MG (QMG) score. Escalating oral doses of EN101 (10-150 μg/kg) were given in the first day (day 1) followed by a daily dose of 500 μg/kg for 3 days (days 2-4). Days 5 and 6 were washout period without pyridostigmine, and restitution of pyridostigmine occurred when it became necessary. Patients were monitored for 1 month thereafter, with three visits as out-patients.
The following parameters were used as inclusion criteria: • Class II and above, according to MGFA classification (myasthenia gravis standard clinical classification of the disease severity score); • Age 18-70; • Seropositive for AChR antibodies; • Patients under pyridostigmine (180 mg/day) treatment without concomitant immunosuppressants; • Stable for 3 months, with no PE (plasma exchange) for 6 months; • No other major or active diseases.
Evaluation of the MG status of each patient was based on the following parameters: • (a) QMG scoring (maximum value of 9), based on the measurements of: • Fatigue in each limb (4); • Fatigue of the neck (1); • Swallowing rate (1); • Power in the hands (2); • Respirometry (1). • These measurements were taken daily, 4 times per day, and averaged for days 2-6. • (b) Patient's subjective report; • (c) Vital signs, clinical chemistry, hematology, urinalysis, ECG and physical examination, recorded daily.
16 patients with stable generalized MG requiring constant AChE inhibitors (pyridostigmine) for daily function were recruited, after approval by human ethics committees of the respective hospitals involved in the present trial (Hadassah Medical Center, Jerusalem, Israel and Greater Manchester Neurosciences Center, Hope Hospital, Salford, England).

[3] = system: AChE-R mRNA; assay: In situ hybridization of AChE-R mRNA in rat muscle; type: in vivo; settings: healthy and EAMG rats
Procedure: In situ hybridization: Tissues were fixed in 4% paraformaldehyde and cut into 7 μm paraffin embedded sections. Spinal cord sections were deparaffinized, rehydrated using serial ethanol dilutions and permeabilized with proteinase K (10 μg/ml at room temp.). Slides were exposed to 5′ biotinylated, fully 2′-oxymethylated AChE-R or AChE-S-specific 50-mer cRNA probes complementary to human ACHE pseudo-intron 4 or exon 6, respectively [Grisaru et al. (2001) id ibid.]. Hybridization was performed overnight at 52° C. in hybridization mixture containing 10 μg/ml probe, 50 μg/ml yeast tRNA, 50 μg/ml heparin and 50% formamide in 375 mM Na chloride, 37.5 mM Na citrate, pH 4.5. For monkey sections, the probe was constructed according to the human AChE-R sequence; for rat sections, according to the mouse sequence. Slides were washed to remove non-hybridized probe, blocked with 1% skim milk containing 0.01% Tween-20 and 2 mM levamisole, an alkaline phosphatase inhibitor used to suppress non-specific staining and incubate with streptavidin-alkaline phosphatase (Amersham Pharmacia). Fast Red™ substrate (Roche Diagnostics) was used for detection. DAPI staining (Sigma Chemical Co., St. Louis, Mo., USA) served to visualize nuclei. Microscope images were analyzed with Image Pro Plus 4.0 (Media Cybernetics) software. […]

[4] = system: AChE-R; assay: Immunohistochemical staining of AChE-R in rat muscle; type: in vivo; settings: healthy and EAMG rats, 24 h after single i.v. injection of 250 μg/Kg
Procedure: Immunocytochemistry: Muscle sections were deparaffinized with xylene and were re-hydrated in graded ethanol solutions (100%, 90%, 70%) and PBS. Heat-induced antigen retrieval was performed by microwave treatment (850 W for rapid boil following 10 min in reduced intensity) in 500 ml of 0.01M citrate buffer pH 6.0. Slides were cooled to room temperature and rinsed in double distilled water. Non-specific binding was blocked by 4% nominal donkey serum in PBS with 0.3% Triton X-100 and 0.05% Tween 20 (1 hr at room temperature). Biotinylated primary antibody was diluted (1:100 and 1:30 for rabbit anti-AChE-R [Sternfeld et al. (2000) id ibid] and goat anti-nAChR, respectively) in the same buffer and slides were incubated 1 hr at room temperature following overnight incubation at 4° C. Sections were rinsed and incubated with alkaline phosphatase-conjugated secondary antibody, diluted in the same blocking buffer 1 hr at room temperature and then overnight at 4° C. Detection was with the alkaline phosphatase substrate Fast Red (Roche Diagnostics, Mannheim, Germany). Slides were simultaneously transferred to a stop solution (25 mM EDTA, 0.05% Triton X-100, 1 mM levamisole in PBS, pH 7.2), rinsed in PBS and cover-slipped with Immunomount (Shandon). […]

[5] = system: healthy rats; assay: Treadmill running time of healthy rats; type: in vivo, rat; settings: 250 μg/Kg
Procedure: Exercise training on treadmill: To establish a clinical measure of neuromuscular performance in EAMG rats, a treadmill assay was performed. Animals were placed on an electrically powered treadmill [Moran et al. (1996) J Therm Biol 21, 171-181] at 25 m/min (a physical effort of moderate intensity) until visibly fatigued. The amount of time the rats were able to run was recorded before and after anti-sense or Mestinon® treatment.

Substance | Total plasma cholinesterase activity (largely serum BChE) ([1]; 12 hr following second day administration, without iso-OMPA) | Post-injection increase of plasma AChE activity ([1]; in presence of 1×10^−5M iso-OMPA, 500 μg/kg vs 150 μg/kg, more effective i.v.) | Decrease in mean total QMG score from baseline ([2]; day 2) | Decrease in mean total QMG score from baseline ([2]; day 3) | Decrease in mean total QMG score from baseline ([2]; day 4) | Decrease in mean total QMG score from baseline ([2]; day 5) | Decrease in mean total QMG score from baseline ([2]; day 6) | Vital signs, chemical chemistry, hematology, urinalysis, ECG and physical examination ([2]; experimental period and month following discharge) | Cholinergic side effects ([2]; human, in vivo) | Duration of improved scores following the final dose ([2]; human, in vivo) | Serious adverse effects ([2]; human, in vivo) | Patients with clear symptomatic improvement ([2]; oral, 10-150 μg/kg day 1, 500 μg/kg days 2-4) | AChE-R mRNA labeling in muscle [3] | AChE-R immunohistochemical staining in muscle [4] | Effect on treadmill running of healthy animals [5]
5′-CTGCCACGTTCTCCTGCACC-3′ [hEN101] | generally unchanged | effectively suppressed or attenuated | 3.0 | 4.8 | 5.7 | 5.5 | 6.0 | remained unchanged | not reported | up to 72 hours | No serious adverse effects were observed | 15 out of 16 |  |  | 
5′-CTGCGATATTTTCTTGTACC-3′ (chemistry not given here) [rEN101] |  |  |  |  |  |  |  |  |  |  |  |  | almost to the limit of detection | significantly reduced | not significantly affected
